Rescue activity and AC40 data for 60 compounds are collected here from PubChem BioAssay AID743336 (Broad Institute, 2014).

Results filed as inconclusive are left out. Activity calls are given as the source filed them.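 How the source made its calls: active means fitted curve of rescue activity rises past 40% within the tested concentration range, in every replicate run; inconclusive means replicate runs disagree, some active and some not; inactive means all replicate runs inactive, including effects in the opposite direction.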

Test [1] is described as follows: suppressors of statin-induced myotube ATP loss, dose response, cell-based, differentiated C2C12, luminescence, dry powder (AID 743336). The conditions noted are these: C2C12 myotubes + simvastatin, ATP luminescence, 48 h.
The subject of test [2] is C2C12 myotubes + simvastatin, ATP luminescence, 48 h. The description is as above.

Consider `N#C[C@@H]1[C@@H](c2ccc(-c3ccc(F)cc3)cc2)[C@H](CO)N1C(=O)Cc1ccccc1`, for which the rescue activity in test [1] (at 19.5 µM (top of the series)) was 37.6% (inactive). The same measure, in the same setting: as for `N#C[C@@H]1[C@@H](c2ccccc2-c2cccc(F)c2)[C@H](CO)N1C(=O)NC1CCCC1`, the figure is 35.9% (inactive). `CCCNC(=O)N1[C@H](CO)[C@H](c2ccccc2)[C@@H]1C#N`: in test [1] (at 19.5 µM (top of the series)), the rescue activity was -1.71% (inactive). For the compound `N#C[C@@H]1[C@H](c2ccc(-c3cccc(F)c3)cc2)[C@H](CO)N1C(=O)NC1CCCC1`, in test [1] (at 19.5 µM (top of the series)), the rescue activity is -9.1% (inactive).

On to `N#C[C@@H]1[C@@H](c2ccc(-c3cccc(F)c3)cc2)[C@H](CO)N1C(=O)c1cccnc1`, for which the rescue activity in test [1] (at 19.5 µM (top of the series)) was 7.76% (inactive). The same measure, in the same setting: to `O=C(C[C@H]1CC[C@@H]2[C@H](COC[C@H](O)CN2CCC(F)(F)F)O1)NCc1ccc(Oc2ccccc2)cc1` belongs 23.4% (inactive). With `Cc1ccc(S(=O)(=O)Nc2ccc3c(c2)CC(=O)N([C@@H](C)CO)C[C@@H](C)[C@H](CN(C)Cc2ccc(-c4ccccc4)cc2)O3)cc1`, the AC40 in test [2] was 17.5 µM. Consider `N#C[C@H]1[C@H](c2ccc(C#Cc3ccc(F)cc3)cc2)[C@H](CO)N1c1nc(-c2ccccc2)cs1`, for which, in test [1] (at 19.5 µM (top of the series)), the rescue activity is 38.1% (inactive).

Consider `N#C[C@@H]1[C@@H](c2ccc(C#Cc3cccnc3)cc2)[C@@H](CO)N1C(=O)C1CCCC1`, for which the rescue activity in test [1] (at 19.5 µM (top of the series)) was -15.7% (inactive). In the case of `C[C@@H]1CN([C@@H](C)CO)C(=O)c2cccc(NC(=O)Nc3ccc4c(c3)OCO4)c2O[C@H]1CN(C)Cc1ccc(C(=O)Nc2ccccc2N)cc1`, the AC40 in test [2] is 16.2 µM. In the case of `C[C@H]1CN([C@@H](C)CO)C(=O)Cc2cc(NS(=O)(=O)c3ccc(Cl)cc3)ccc2O[C@@H]1CN(C)CC1CCCCC1`, in test [1] (at 21 µM (top of the series)), the rescue activity was 3.09% (inactive). Still for that read-out and setting: as for `C[C@H]1CN([C@@H](C)CO)C(=O)Cc2cc(NC(=O)CCCCCC(=O)Nc3ccccc3N)ccc2O[C@@H]1CN(C)Cc1ccc(Oc2ccccc2)cc1`, the figure is 20% (inactive). As to `COc1ccc(-c2ccc([C@@H]3[C@@H](C#N)N(C(=O)NC4CCCC4)[C@H]3CO)cc2)cc1`, the rescue activity in test [1] (at 19.5 µM (top of the series)) is 12.8% (inactive).

`COCC(=O)N1[C@H](C#N)[C@@H](c2ccc(-c3cccc(F)c3)cc2)[C@@H]1CO`: the rescue activity in test [1] (at 21 µM (top of the series)) was 7.78% (inactive). Consider `C[C@H](CO)N1C[C@H](C)[C@H](CN(C)Cc2ccc(Oc3ccccc3)cc2)Oc2ccc(NC(=O)CCCCCC(=O)Nc3ccccc3N)cc2CC1=O`, for which the rescue activity in test [1] (at 21 µM (top of the series)) is -22.7% (inactive). As to `N#C[C@H]1[C@@H](c2ccc(-c3cccc(F)c3)cc2)[C@@H](CO)N1C(=O)NC1CCCC1`, the rescue activity in test [1] (at 19.5 µM (top of the series)) is 5.12% (inactive). Take `CCS(=O)(=O)N1[C@H](C#N)[C@@H](c2ccc(-c3cccc(F)c3)cc2)[C@@H]1CO`: in test [1] (at 21 µM (top of the series)), the rescue activity is 10.1% (inactive). As for `C/C=C/c1ccc([C@H]2[C@@H](CO)N(C(=O)NC3CCCC3)[C@H]2C#N)cc1`, in test [1] (at 19.5 µM (top of the series)), the rescue activity was 5.47% (inactive).

On to `C[C@H]1CN([C@@H](C)CO)C(=O)c2cc(C#Cc3ccncc3)cnc2O[C@@H]1CN(C)CC1CCCC1`, for which the rescue activity in test [1] (at 19.5 µM (top of the series)) is 20.2% (inactive). With `N#C[C@@H]1[C@@H](c2ccccc2)[C@H](CO)N1S(=O)(=O)c1ccc(-c2ccccc2)cc1`, the AC40 in test [2] is 10.6 µM. Regarding `C[C@@H]1CN([C@H](C)CO)C(=O)Cc2cc(NC(=O)C3CCCCC3)ccc2O[C@H]1CN(C)Cc1ccc(Cl)c(Cl)c1`, the rescue activity in test [1] (at 19.5 µM (top of the series)) is 24.8% (inactive). Still for that read-out and setting: to `C[C@H]1CN([C@@H](C)CO)C(=O)c2cc(N(C)C)ccc2O[C@@H]1CN(C)Cc1ccc(C(=O)Nc2ccccc2N)cc1` belongs 28.1% (inactive); to `CCCC#Cc1ccc([C@H]2[C@@H](C#N)N(S(=O)(=O)c3cccc(F)c3)[C@H]2CO)cc1`, 3.48% (inactive). As for `C[C@H](CO)N1C[C@H](C)[C@H](CN(C)CC2CCCCC2)Oc2ccc(NC(=O)CCCCCC(=O)Nc3ccccc3N)cc2CC1=O`, the AC40 in test [2] was 9.21 µM.

Consider `CN(C)C(=O)c1cccc(-c2ccc([C@@H]3[C@@H](C#N)N(C(=O)C4CCCC4)[C@@H]3CO)cc2)c1`, for which, in test [1] (at 19.5 µM (top of the series)), the rescue activity was 11.9% (inactive). Consider `CC(C)=CCC/C(C)=C/CC/C(C)=C/CC/C(C)=C/CO`, for which the AC40 in test [2] is 4.38 µM. As for `N#C[C@H]1[C@H](c2ccc(-c3cccc(F)c3)cc2)[C@@H](CO)N1C(=O)NC1CCCC1`, in test [1] (at 19.5 µM (top of the series)), the rescue activity was 33.1% (inactive). Regarding `C[C@@H]1CN([C@@H](C)CO)C(=O)c2cc(NC(=O)Cc3cn(C)c4ccccc34)ccc2O[C@H]1CN(C)Cc1ccc(C(=O)Nc2ccccc2N)cc1`, the rescue activity in test [1] (at 19.5 µM (top of the series)) was 29.3% (inactive). Still for that read-out and setting: as for `C[C@H]1CN([C@@H](C)CO)S(=O)(=O)c2ccc(C#CC3CC3)cc2O[C@H]1CN(C)C(=O)Nc1cc(F)ccc1F`, the figure is 23.2% (inactive). On to `C[C@@H]1CN([C@@H](C)CO)C(=O)c2cc(NS(=O)(=O)c3ccc(Cl)cc3)ccc2O[C@H]1CN(C)C(=O)Nc1cccc2ccccc12`, for which the AC40 in test [2] is 14.6 µM.

Take `Cc1noc(C)c1S(=O)(=O)Nc1ccc2c(c1)CC(=O)N([C@H](C)CO)C[C@@H](C)[C@@H](CN(C)Cc1ccc(-c3ccccc3)cc1)O2`: the AC40 in test [2] is 13.9 µM. Turning to `C[C@@H]1CN([C@H](C)CO)C(=O)Cc2cc(NS(=O)(=O)c3cn(C)cn3)ccc2O[C@@H]1CN(C)Cc1ccc(Cl)c(Cl)c1`, in test [1] (at 19.5 µM (top of the series)), the rescue activity is 34.3% (inactive).

For `C[C@H](CO)N1C[C@H](C)[C@H](CN(C)Cc2ccc(C(=O)Nc3ccccc3N)cc2)Oc2ccc(N(C)C)cc2C1=O`, the rescue activity in test [1] (at 19.5 µM (top of the series)) was 6.09% (inactive). Same read-out and setting: as for `CN1C(=O)c2cc(NC(=O)c3ccc(F)c(F)c3)ccc2OC[C@H]2O[C@@H](CC(=O)Nc3ccc4c(c3)COC4)CC[C@@H]21`, the figure is 29.3% (inactive). In the case of `CC(C)CC#Cc1cnc2c(c1)C(=O)N([C@H](C)CO)C[C@H](C)[C@@H](CN(C)C(=O)Cc1ccccc1)O2`, the rescue activity in test [1] (at 21 µM (top of the series)) is -0.381% (inactive). `CCCNC(=O)N1[C@H](C#N)[C@@H](c2ccc(C3=CCCCC3)cc2)[C@@H]1CO`: the rescue activity in test [1] (at 19.5 µM (top of the series)) was 37.4% (inactive). `N#C[C@@H]1[C@H](c2ccc(-c3cccc(F)c3)cc2)[C@@H](CO)N1C(=O)NC1CCCC1`: the rescue activity in test [1] (at 19.5 µM (top of the series)) was -10.7% (inactive). On the same count and under the same terms, as for `O=C(C[C@H]1CC[C@@H]2[C@H](COC[C@@H](O)CN2Cc2ccc(Oc3ccccc3)cc2)O1)N1CCCCC1`, the figure is 22.2% (inactive); as for `C[C@@H]1CN([C@H](C)CO)C(=O)Cc2cc(NC(=O)CCCCCC(=O)Nc3ccccc3N)ccc2O[C@H]1CN(C)Cc1ccc(Oc2ccccc2)cc1`, 30.8% (inactive). Take `N#C[C@H]1N[C@@H](CO)[C@@H]1c1ccc(-c2cccc(F)c2)cc1`: the rescue activity in test [1] (at 21 µM (top of the series)) was 0.836% (inactive). `C[C@H]1CN([C@@H](C)CO)C(=O)Cc2cc(NC(=O)Nc3cccc4ccccc34)ccc2O[C@H]1CN(C)Cc1ccc(C(=O)Nc2ccccc2N)cc1`: the AC40 in test [2] was 9.64 µM. Turning to `C[C@@H]1CN([C@H](C)CO)C(=O)c2cc(NC(=O)Nc3cccc4ccccc34)ccc2O[C@@H]1CN(C)Cc1ccc(C(=O)Nc2ccccc2N)cc1`, in test [2], the AC40 was 15.9 µM. Consider `C[C@@H]1CN([C@H](C)CO)C(=O)c2cccc(NC(=O)c3nc4ccccc4s3)c2O[C@@H]1CN(C)Cc1ccc(C(=O)Nc2ccccc2N)cc1`, for which the rescue activity in test [1] (at 19.5 µM (top of the series)) was -3.35% (inactive).

With `C[C@H](CO)N1C[C@H](C)[C@H](CN(C)Cc2ccc3c(c2)OCO3)Oc2ccc(NC(=O)CCCCCC(=O)Nc3ccccc3N)cc2CC1=O`, in test [1] (at 18 µM (top of the series)), the rescue activity was 27.2% (inactive). As to `C[C@H]1CN([C@@H](C)CO)C(=O)c2cc(NC(=O)Nc3cccc4ccccc34)ccc2O[C@H]1CN(C)Cc1ccc(C(=O)Nc2ccccc2N)cc1`, the AC40 in test [2] was 13.5 µM. On to `COc1ccc(S(=O)(=O)N(C)C[C@H]2Oc3c(NC(=O)Nc4ccccc4)cccc3C(=O)N([C@H](C)CO)C[C@H]2C)cc1`, for which the rescue activity in test [1] (at 19.5 µM (top of the series)) is 29.2% (inactive). Turning to `N#C[C@@H]1[C@@H](c2ccc(-c3cccc(F)c3)cc2)[C@@H](CO)N1C(=O)NC1CCCC1`, the rescue activity in test [1] (at 19.5 µM (top of the series)) was 9.41% (inactive). For the compound `C[C@H]1CN([C@@H](C)CO)C(=O)Cc2cc(NC(=O)CCCCCC(=O)Nc3ccccc3N)ccc2O[C@H]1CN(C)Cc1ccc(C(F)(F)F)cc1`, the rescue activity in test [1] (at 21 µM (top of the series)) is 44.5% (inactive). With `N#C[C@@H]1[C@@H](c2ccccc2-c2ccc(F)cc2)[C@H](CO)N1C(=O)NC1CCCC1`, the rescue activity in test [1] (at 19.5 µM (top of the series)) was 35.5% (inactive). Take `Cc1ccc(S(=O)(=O)N(C)C[C@@H]2Oc3ccc(NS(=O)(=O)c4ccc(Cl)cc4)cc3C(=O)N([C@H](C)CO)C[C@@H]2C)cc1`: the rescue activity in test [1] (at 19.5 µM (top of the series)) is 27.2% (inactive). For the compound `N#C[C@H]1[C@H](c2ccc(C#CCC3CCCC3)cc2)[C@@H](CO)N1C(=O)CN1CCOCC1`, in test [1] (at 19.5 µM (top of the series)), the rescue activity was 28.6% (inactive).

Regarding `C[C@@H]1CN([C@@H](C)CO)C(=O)Cc2cc(NC(=O)CCCCCC(=O)Nc3ccccc3N)ccc2O[C@@H]1CN(C)Cc1ccc(Oc2ccccc2)cc1`, the rescue activity in test [1] (at 21 µM (top of the series)) is -22.1% (inactive). Regarding `N#C[C@H]1[C@H](c2ccc(-c3cccc(F)c3)cc2)[C@H](CO)N1C(=O)NC1CCCC1`, the rescue activity in test [1] (at 19.5 µM (top of the series)) is 29.9% (inactive). In the case of `C[C@@H]1CN([C@H](C)CO)C(=O)Cc2cc(NC(=O)CCCCCC(=O)Nc3ccccc3N)ccc2O[C@@H]1CN(C)Cc1ccc(Oc2ccccc2)cc1`, in test [1] (at 19.5 µM (top of the series)), the rescue activity is -50.8% (inactive). As to `N#C[C@H]1[C@@H](c2ccc(-c3cccc(F)c3)cc2)[C@H](CO)N1C(=O)NC1CCCC1`, the rescue activity in test [1] (at 19.5 µM (top of the series)) was -7.45% (inactive). With `COc1ccc(C#Cc2cnc3c(c2)C(=O)N([C@H](C)CO)C[C@H](C)[C@H](CN(C)Cc2ccccc2)O3)cc1OC`, in test [1] (at 19.5 µM (top of the series)), the rescue activity was 32.2% (inactive). Regarding `C[C@H](CO)N1C[C@H](C)[C@@H](CN(C)Cc2ccc(Oc3ccccc3)cc2)Oc2c(NC(=O)Nc3cccc4ccccc34)cccc2C1=O`, the rescue activity in test [1] (at 19.5 µM (top of the series)) was 26.8% (inactive).

Take `C[C@H](CO)N1C[C@H](C)[C@H](CN(C)Cc2ccc(C(=O)Nc3ccccc3N)cc2)Oc2ccc(NC(=O)Nc3ccc(F)cc3)cc2CC1=O`: in test [1] (at 19.5 µM (top of the series)), the rescue activity was -62.1% (inactive).

Regarding `N#C[C@@H]1[C@@H](c2ccc(C3=CCCCC3)cc2)[C@H](CO)N1C(=O)NC1CCCC1`, in test [1] (at 19.5 µM (top of the series)), the rescue activity is 33.7% (inactive). In the case of `CCCNC(=O)N1[C@@H](C#N)[C@@H](c2ccc(-c3ccccc3F)cc2)[C@@H]1CO`, the rescue activity in test [1] (at 21 µM (top of the series)) was -7.41% (inactive).
